Read-outs that look alike come from different tables or passages of the source.
Experiments:
[1] = cited from earlier work
CYP1A2 [2] = test: CYP1A2 enzyme induction assay in cryopreserved HepaRG cells (phenacetin probe, LC/MS); format: in vitro ADME, human; settings: for Assigned classification CYP1A2: HepaRG; as to Assigned classification CYP1A2: key: 1=Positive=inducer; 0=Negative=non-inducer
CYP3A4 [3] = test: CYP3A4 enzyme induction assay in cryopreserved primary human hepatocytes (PHH); settings: for Assigned classification CYP3A4: PHH
CYP3A4 [4] = test: CYP3A4 enzyme induction assay in cryopreserved HepaRG cells (midazolam probe, LC/MS); format: in vitro ADME, human; settings: for Assigned classification CYP3A4: HepaRG; as to Assigned classification CYP3A4: key: 1=Positive=inducer; 0=Negative=non-inducer
CYP2B6 [5] = settings: cited from earlier work
CYP3A4 [6] = settings: cited from earlier work
CYP1A2 [7] = settings: cited from earlier work
[8] = Solubility by visual inspection (DMSO stock solution and assay medium); format: physicochemical; settings: assay medium
Description: The SOPs relied on visual inspection for solubility observation. […] The absence of precipitation in the medium was checked pre- and post-incubation (24 hours) by centrifugation of the sample and observation of any precipitation (pellet residue).

CYP2B6 [9] = test: CYP2B6 enzyme induction assay in cryopreserved HepaRG cells (bupropion probe, LC/MS); format: in vitro ADME, human; settings: for Prediction in vivo inducer: Cmax/F2 >0.5 criterion; for Assigned classification CYP2B6: HepaRG; as to Assigned classification CYP2B6: key: 1=Positive=inducer; 0=Negative=non-inducer
CYP1A2 [10] = test: CYP1A2 enzyme induction assay in cryopreserved primary human hepatocytes (PHH); format: in vitro ADME; settings: for Prediction in vivo inducer: Cmax/F2 >0.5 criterion; for Assigned classification CYP1A2: PHH;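 as to Assigned classification CYP1A2: code 1 means positive inducer and 0 means non-inducer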
CYP = CYP isoforms induced; ref Abadie et al. (2009), Richert et al. (2010), Preissner et al. (2010), Hoffmann et al. (2014); cited from earlier work
[11] = Solubility by nephelometry (EURL ECVAM); format: physicochemical
Text: In addition to the visual inspection performed by the validation laboratories as described in the SOP, EURL ECVAM introduced nephelometry for systematic solubility determination of the 13 validation set chemicals. Nephelometry uses a laser beam and the principle of Tyndall effect light scatter to detect turbidity due to insolubility. The nephelometer method used formazin as reference item (1, 5, 10 and 20 nephelometric turbidity units (NTU)) to calculate the relative turbidity (RTU) of the validation set of chemicals. To the naked eye, 20 NTU is perceptible, while the nephelometer was sensitive to 5 NTU, with 1 NTU equivalent to background (solvent/medium blank).

CYP2B6 [12] = test: CYP2B6 enzyme induction assay in cryopreserved primary human hepatocytes (PHH); format: in vitro ADME; settings: for Assigned classification CYP2B6: PHH;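 as to Assigned classification CYP2B6: code 1 means positive inducer and 0 means non-inducer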
[13] = human in vivo, CYP named without remark = induced, ref references in the cell, Washington University database, Hoffmann et al. (2014), Pelkonen et al. (2008), Hukkanen et al. (2012)

In the case of `O=C1NC(=O)C(c2ccccc2)(c2ccccc2)N1` [Phenytoin sodium], the Cmax ([1]; human in vivo plasma concentration, normal dose) is given as 40 to 80 µM, the Cmax ([1]; human in vivo, normal dose (Table 10)) is given as 40 to 80 µM and the “Prediction in vivo inducer” value (CYP1A2 [2]; CYP1A2, HepaRG cells, Cmax/F2 >0.5 criterion) is given as “Yes”. For the same molecule, the F2 (CYP1A2 [2]; CYP1A2, HepaRG cells, in vitro concentration producing 2-fold induction) was 36.5 µM, the Induction in vitro (CYP1A2 [2]; CYP1A2, HepaRG cells, positive in one batch in each of the three laboratories) was “Yes” and the “Assigned classification CYP1A2” value (CYP1A2 [2]; Lab 1, batch 20) was 1. The “Assigned classification CYP1A2” value (CYP1A2 [2]; Lab 1, batch 35) was 1, the “Assigned classification CYP1A2” value (CYP1A2 [2]; Lab 1, batch 36) was 1 and the “Assigned classification CYP1A2” value (CYP1A2 [2]; Lab 2, batch 20) was 1. The “Assigned classification CYP1A2” value (CYP1A2 [2]; Lab 2, batch 35) was 1, the “Assigned classification CYP1A2” value (CYP1A2 [2]; Lab 2, batch 36) was 1 and the “Assigned classification CYP1A2” value (CYP1A2 [2]; Lab 3, batch 20) was 1. For the same molecule, the “Assigned classification CYP1A2” value (CYP1A2 [2]; Lab 3, batch 35) was 0, the “Assigned classification CYP1A2” value (CYP1A2 [2]; Lab 3, batch 36) was 1 and the F2 (CYP3A4 [3]; CYP3A4, PHH) was 1.80 to 16.2 µM. For the same molecule, the Induction in vitro (CYP3A4 [3]; CYP3A4, PHH) was “Yes”, the “Prediction in vivo inducer” value (CYP3A4 [3]; CYP3A4, PHH) was “Yes” and the “Assigned classification CYP3A4” value (CYP3A4 [3]; Lab 1, batch 0 6 A) was 1. The “Assigned classification CYP3A4” value (CYP3A4 [3]; Lab 1, batch 4 0 8) was 0, the “Assigned classification CYP3A4” value (CYP3A4 [3]; Lab 1, batch 8 0 8) was 1 and the “Assigned classification CYP3A4” value (CYP3A4 [3]; Lab 2, batch 0 6 A) was 1. For the same molecule, the “Assigned classification CYP3A4” value (CYP3A4 [3]; Lab 2, batch 4 0 8) was 1, the “Assigned classification CYP3A4” value (CYP3A4 [3]; Lab 2, batch 8 0 8) was 1 and the “Assigned classification CYP3A4” value (CYP3A4 [3]; Lab 3, batch 0 6 A) was 1. The “Assigned classification CYP3A4” value (CYP3A4 [3]; Lab 3, batch 4 0 8) was 1, the “Assigned classification CYP3A4” value (CYP3A4 [3]; Lab 3, batch 8 0 8) was 1 and the F2 (CYP3A4 [4]; CYP3A4, HepaRG cells) was 12.2 µM. The Induction in vitro (CYP3A4 [4]; CYP3A4, HepaRG cells) was “Yes”, the “Prediction in vivo inducer” value (CYP3A4 [4]; CYP3A4, HepaRG cells) was “Yes” and the “Assigned classification CYP3A4” value (CYP3A4 [4]; Lab 1, batch 20) was 1. For the same molecule, the “Assigned classification CYP3A4” value (CYP3A4 [4]; Lab 1, batch 35) was 1, the “Assigned classification CYP3A4” value (CYP3A4 [4]; Lab 1, batch 36) was 1 and the “Assigned classification CYP3A4” value (CYP3A4 [4]; Lab 2, batch 20) was 1. The “Assigned classification CYP3A4” value (CYP3A4 [4]; Lab 2, batch 35) was 1, the “Assigned classification CYP3A4” value (CYP3A4 [4]; Lab 2, batch 36) was 1 and the “Assigned classification CYP3A4” value (CYP3A4 [4]; Lab 3, batch 20) was 1. For the same molecule, the “Assigned classification CYP3A4” value (CYP3A4 [4]; Lab 3, batch 35) was 1, the “Assigned classification CYP3A4” value (CYP3A4 [4]; Lab 3, batch 36) was 1 and the Induction in vivo (CYP2B6 [5]; CYP2B6, human in vivo reference classification) was “Yes”. The Induction in vivo (CYP2B6 [5]; CYP2B6, human, ref Table 1) was “Yes”, the “CYP induction in vivo literature reference: CYP2B6” value (CYP2B6 [5]; [13]) was “CYP2B6” and the Induction in vivo (CYP3A4 [6]; CYP3A4, human in vivo reference classification (Table 11)) was “Yes”. The “CYP induction in vivo literature reference: CYP3A4” value (CYP3A4 [6]; [13]) was “CYP3A4”, the Induction in vivo (CYP1A2 [7]; CYP1A2, human, ref Table 1) was “Yes” and the “CYP induction in vivo literature reference: CYP1A2” value (CYP1A2 [7]; [13]) was “CYP1A2”. For the same molecule, the HepaRG medium stability ([8]; Lab 1, visual observation) was 40 µg/mL, the HepaRG medium stability ([8]; Lab 2, visual observation) was 20 µg/mL and the HepaRG medium stability ([8]; Lab 3, visual observation) was 40 µg/mL. It also gave a PHH medium stability ([8]; Lab 4, visual observation) of 40 µg/mL, a PHH medium stability ([8]; Lab 5, visual observation) of 20 µg/mL and a PHH medium stability ([8]; Lab 6, visual observation) of 10 µg/mL. The “Prediction in vivo inducer” value (CYP2B6 [9]; CYP2B6, HepaRG cells, listed as Phenytoin) was “Yes”, the “Prediction in vivo inducer” value (CYP2B6 [9]; CYP2B6, HepaRG cells, listed as phenytoin) was “correctly classified” and the F2 (CYP2B6 [9]; CYP2B6, HepaRG cells, in vitro concentration producing 2-fold induction) was 1.35 µM. The Induction in vitro (CYP2B6 [9]; CYP2B6, HepaRG cells, positive in one batch in each of the three laboratories) was “Yes”, the “Assigned classification CYP2B6” value (CYP2B6 [9]; Lab 1, batch 20) was 1 and the “Assigned classification CYP2B6” value (CYP2B6 [9]; Lab 1, batch 35) was 1. The “Assigned classification CYP2B6” value (CYP2B6 [9]; Lab 1, batch 36) was 1, the “Assigned classification CYP2B6” value (CYP2B6 [9]; Lab 2, batch 20) was 1 and the “Assigned classification CYP2B6” value (CYP2B6 [9]; Lab 2, batch 35) was 1. For the same molecule, the “Assigned classification CYP2B6” value (CYP2B6 [9]; Lab 2, batch 36) was 1, the “Assigned classification CYP2B6” value (CYP2B6 [9]; Lab 3, batch 20) was 1 and the “Assigned classification CYP2B6” value (CYP2B6 [9]; Lab 3, batch 35) was 1. For the same molecule, the “Assigned classification CYP2B6” value (CYP2B6 [9]; Lab 3, batch 36) was 1, the “Prediction in vivo inducer” value (CYP1A2 [10]; CYP1A2, PHH, listed as Phenytoin) was “Yes” and the “Prediction in vivo inducer” value (CYP1A2 [10]; CYP1A2, PHH, listed as phenytoin) was “correctly predicted CYP1A2 induction”. The F2 (CYP1A2 [10]; CYP1A2, PHH, in vitro concentration producing 2-fold induction) was 16.2 to 48.6 µM, the Induction in vitro (CYP1A2 [10]; CYP1A2, PHH, positive in one donor in each of the three laboratories) was “Yes” and the “Assigned classification CYP1A2” value (CYP1A2 [10]; Lab 1, batch 0 6 A) was 1. For the same molecule, the “Assigned classification CYP1A2” value (CYP1A2 [10]; Lab 1, batch 4 0 8) was 0, the “Assigned classification CYP1A2” value (CYP1A2 [10]; Lab 1, batch 8 0 8) was 0 and the “Assigned classification CYP1A2” value (CYP1A2 [10]; Lab 2, batch 0 6 A) was 1. For the same molecule, the “Assigned classification CYP1A2” value (CYP1A2 [10]; Lab 2, batch 4 0 8) was 0, the “Assigned classification CYP1A2” value (CYP1A2 [10]; Lab 2, batch 8 0 8) was 0 and the “Assigned classification CYP1A2” value (CYP1A2 [10]; Lab 3, batch 0 6 A) was 1. For the same molecule, the “Assigned classification CYP1A2” value (CYP1A2 [10]; Lab 3, batch 4 0 8) was 1, the “Assigned classification CYP1A2” value (CYP1A2 [10]; Lab 3, batch 8 0 8) was 0 and the “CYP induction in vitro (human hepatocytes)” value (CYP) was “CYP1A2, CYP2B6, CYP3A4”. The “nephelometry finding in assay medium” value ([11]; 40 μg/ml, the two media) was “insoluble suspensions”, the HepaRG medium stability ([11]; ECVAM nephelometry, HepaRG medium, ^2 = solubility limit) was 40 µg/mL and the PHH medium stability ([11]; ECVAM nephelometry, PHH medium, ^2 = solubility limit) was 20 µg/mL. For the same molecule, the F2 (CYP2B6 [12]; CYP2B6, PHH) was 0.60 to 48.6 µM, the Induction in vitro (CYP2B6 [12]; CYP2B6, PHH) was “Yes” and the “Prediction in vivo inducer” value (CYP2B6 [12]; CYP2B6, PHH) was “Yes”. The “Prediction in vivo inducer” value (CYP2B6 [12]; CYP2B6, PHH, Cmax/F2 >0.5 criterion) was “positive”, the “Assigned classification CYP2B6” value (CYP2B6 [12]; Lab 1, batch 0 6 A) was 1 and the “Assigned classification CYP2B6” value (CYP2B6 [12]; Lab 1, batch 4 0 8) was 1. For the same molecule, the “Assigned classification CYP2B6” value (CYP2B6 [12]; Lab 1, batch 8 0 8) was 0, the “Assigned classification CYP2B6” value (CYP2B6 [12]; Lab 2, batch 0 6 A) was 1 and the “Assigned classification CYP2B6” value (CYP2B6 [12]; Lab 2, batch 4 0 8) was 1. The “Assigned classification CYP2B6” value (CYP2B6 [12]; Lab 2, batch 8 0 8) was 0, the “Assigned classification CYP2B6” value (CYP2B6 [12]; Lab 3, batch 0 6 A) was 1 and the “Assigned classification CYP2B6” value (CYP2B6 [12]; Lab 3, batch 4 0 8) was 1. For the same molecule, the “Assigned classification CYP2B6” value (CYP2B6 [12]; Lab 3, batch 8 0 8) was 1.

— publication PMC6718736, “Validation of in vitro methods for human cytochrome P450 enzyme induction: Outcome of a multi-laboratory study” (Toxicology in Vitro, 2019)
